In the oligonucleotide strings, read from the 5' end, every base follows the letter of its sugar. An asterisk marks phosphorothioate; unmarked linkages are phosphodiester. Other units and linkages are bracketed, terminal groups are in braces. A string of capitals states the bases alone. d = 2'-deoxy (DNA); m = 2'-O-methyl

Data on 32 substances can be found in patent US20240384268A1, “Oligonucleotides” (Hudson Institute of Medical Research, priority 2021, published 2024).

This data set concerns the target T1, human TLR9 (Homo sapiens, UniProt Q9NR96).
T1 construct: HA; host or cells: 293XL-hTLR9-HA (HEK293)
T1 sequence (Q9NR96 26-1032): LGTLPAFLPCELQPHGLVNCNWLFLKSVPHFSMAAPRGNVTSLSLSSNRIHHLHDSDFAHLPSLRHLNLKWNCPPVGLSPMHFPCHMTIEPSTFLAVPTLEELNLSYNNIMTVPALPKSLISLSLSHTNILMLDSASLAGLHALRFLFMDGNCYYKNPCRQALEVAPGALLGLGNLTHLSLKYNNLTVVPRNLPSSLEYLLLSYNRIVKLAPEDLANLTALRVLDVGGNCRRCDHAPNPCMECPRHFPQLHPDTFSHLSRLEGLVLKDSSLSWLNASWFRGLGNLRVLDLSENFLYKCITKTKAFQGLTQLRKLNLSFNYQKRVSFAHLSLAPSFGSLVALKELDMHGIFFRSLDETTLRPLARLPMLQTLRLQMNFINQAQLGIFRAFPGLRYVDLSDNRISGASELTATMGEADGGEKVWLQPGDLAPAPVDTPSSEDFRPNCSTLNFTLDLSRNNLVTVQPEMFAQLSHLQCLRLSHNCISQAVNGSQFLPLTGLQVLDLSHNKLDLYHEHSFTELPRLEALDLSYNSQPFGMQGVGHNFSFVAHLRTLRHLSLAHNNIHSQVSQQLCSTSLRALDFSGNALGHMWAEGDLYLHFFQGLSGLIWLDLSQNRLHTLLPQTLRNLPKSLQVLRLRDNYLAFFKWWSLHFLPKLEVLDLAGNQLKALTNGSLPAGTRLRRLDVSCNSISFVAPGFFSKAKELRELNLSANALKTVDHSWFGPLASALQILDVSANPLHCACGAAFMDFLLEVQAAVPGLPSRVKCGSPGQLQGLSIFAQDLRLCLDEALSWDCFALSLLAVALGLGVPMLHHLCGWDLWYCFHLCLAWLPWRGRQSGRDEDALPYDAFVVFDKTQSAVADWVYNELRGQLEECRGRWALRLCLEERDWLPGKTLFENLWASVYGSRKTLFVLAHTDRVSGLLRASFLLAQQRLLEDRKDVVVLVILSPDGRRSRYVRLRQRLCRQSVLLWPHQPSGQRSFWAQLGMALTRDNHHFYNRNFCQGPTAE
As to the kind of experiment: HEK-TLR9 NF-κB-luciferase reporter, ODN2006 stimulation. Conditions: for TLR9 100 nM: MOE-modified ASO at 100 nM; for TLR9 100 nM / TLR9 500 nM: averaged NF-κB-Luciferase relative to ODN2006 condition; for TLR9 500 nM: MOE-modified ASO at 500 nM; for TLR9-500 nM: averaged NF-κB-Luciferase relative to ODN2006: HEK-TLR9, 500 nM ASO 45 min, then 200 nM ODN2006 overnight, percentage of ODN2006 only. Format: cell-based. (In general: A reporter such as luciferase makes a cellular process visible.)

Take “AGTCGTAGTTGCTTCCTAAC (antisense; 2'-MOE modified, pattern not given here) [MB21D1-1181 MOE]”: the “TLR9 100 nM” value is given as 0.527 and the “TLR9 500 nM” value is 0.341.
Turning to “ATGCCATCCACTTGATAGGC (antisense; 2'-MOE modified, pattern not given here) [EGFR-2874 MOE]”, the “TLR9 100 nM” value is 0.712 and the “TLR9 500 nM” value was determined as 0.589.
On the same counts, the results for “CGGAGGTCTTGGCTTCGTGG (antisense; 2'-MOE modified, pattern not given here) [MB21D1-525 MOE]” are 0.938 and 0.556.
Turning to “CGGCATCCACCACGTCGTCC (antisense; 2'-MOE modified, pattern not given here) [EGFR-3267 MOE]”, the “TLR9 100 nM” value is on record as 0.449 and the “TLR9 500 nM” value is 0.373.
On the same counts, the results for “GCCCATCCATGAGGTCCTGG (antisense; 2'-MOE modified, pattern not given here) [CTNN2B-2545 MOE]” are 0.324 and 0.175.
For “GCTGACAAAGATTCACTGGT (antisense; 2'-MOE modified, pattern not given here) [HPRT-1353 MOE]” the same measures were 0.653 and 0.654.
For “GGGTATCGAAAGAGTCTGGA (antisense; 2'-MOE modified, pattern not given here) [EGFR-3908 MOE]”, the “TLR9 100 nM” value is on record as 0.349 and the “TLR9 500 nM” value stood at 0.203.
On the same counts, the results for “GGTTTTGGCTGGGATCAAGT (antisense; 2'-MOE modified, pattern not given here) [CAMSAP1-4697 MOE]” are 0.381 and 0.200.
For “GTCCAAGATCAGCAGTCTCA (antisense; 2'-MOE modified, pattern not given here) [CTNN2B-2341 MOE]” the same measures were 0.430 and 0.535.
On the same counts, the results for “TCCGGCCTCGGAAGCTCTCT (antisense; 2'-MOE modified, pattern not given here) [MB21D1-168 MOE]” are 0.242 and 0.000.
As for “TGGCAGGCTCAGTGATGTCT (antisense; 2'-MOE modified, pattern not given here) [CTNN2B-1642 MOE]”, the “TLR9 100 nM” value was determined as 0.722 and the “TLR9 500 nM” value turned out to be 0.479.
In the case of “TGGGCTGGAATCCGAGTTAT (antisense; 2'-MOE modified, pattern not given here) [EGFR-4705 MOE]”, the “TLR9 100 nM” value was found to be 0.443 and the “TLR9 500 nM” value was found to be 0.241.
On the same counts, the results for “TGGGTTACGGCTCAGTATGG (antisense; 2'-MOE modified, pattern not given here) [CAMSAP1-4295 MOE]” are 0.478 and 0.228.
For “TTTGCACACTTCGTACCCAA (antisense; 2'-MOE modified, pattern not given here) [CAMSAP1-4916 MOE]” the same measures were 0.735 and 0.514.
With “mA*mA*mA*mA*mG*A*T*T*A*T*C*T*T*C*T*mU*mU*mU*mA*mA (AAAAGATTATCTTCTUUUAA; sugars from the 5' end m5 d10 m5, all phosphorothioate, methylation of C not given here) [[CDKN2B-AS1]2133]”, the “TLR9-500 nM: averaged NF-κB-Luciferase relative to ODN2006” value is reported as 80.95%.
The same measure, in the same setting: the figure for “mA*mA*mA*mA*mU*A*A*G*G*G*G*A*A*T*A*mG*mG*mG*mG*mA (mA*mA*mA*mA*mU*dA*dA*dG*dG*dG*dG*dA*dA*dT*dA*mG*mG*mG*mG*mA; antisense) [[CDKN2B-AS1]79]” is 67.44%; for “mA*mA*mA*mG*mA*T*T*A*T*C*T*T*C*T*T*mU*mU*mA*mA*mU (mA*mA*mA*mG*mA*dT*dT*dA*dT*dC*dT*dT*dC*dT*dT*mU*mU*mA*mA*mU) [[CDKN2B-AS1]2132]” it is 63.14%.
On the same count and under the same terms, the figure for “mA*mA*mA*mU*mG*T*C*C*T*G*G*C*C*C*T*mC*mA*mC*mU*mG (mA*mA*mA*mU*mG*dT*dC*dC*dT*dG*dG*dC*dC*dC*dT*mC*mA*mC*mU*mG) [[LINC-PINT]148.1]” is 46.72%; for “mA*mA*mG*mA*mU*T*A*T*C*T*T*C*T*T*T*mU*mA*mA*mU*mU (mA*mA*mG*mA*mU*dT*dA*dT*dC*dT*dT*dC*dT*dT*dT*mU*mA*mA*mU*mU) [[CDKN2B-AS1]2131]” it is 59.77%; for “mA*mA*mG*mG*mU*G*G*C*C*A*C*A*G*G*C*mA*mA*mC*mG*mU (mA*mA*mG*mG*mU*dG*dG*dC*dC*dA*dC*dA*dG*dG*dC*mA*mA*mC*mG*mU; antisense) [[CDKN2B-AS1]2198]” it is 84.28%.
On the same count and under the same terms, the figure for “mA*mA*mU*mA*mU*C*T*G*C*T*G*C*C*C*A*mC*mC*mU*mU*mC (mA*mA*mU*mA*mU*dC*dT*dG*dC*dT*dG*dC*dC*dC*dA*mC*mC*mU*mU*mC; antisense) [[CDKN2B-AS1]832]” is 70.72%; for “mA*mA*mU*mU*mU*A*A*A*G*C*A*T*G*A*A*mU*mA*mU*mU*mA (mA*mA*mU*mU*mU*dA*dA*dA*dG*dC*dA*dT*dG*dA*dA*mU*mA*mU*mU*mA) [[CDKN2B-AS1]645]” it is 53.26%.
Turning to “mA*mC*mC*mC*mU*T*C*T*C*T*C*T*G*G*T*mC*mC*mC*mA*mU (mA*mC*mC*mC*mU*dT*dC*dT*dC*dT*dC*dT*dG*dG*dT*mC*mC*mC*mA*mU; antisense) [[LINC-PINT]115]”, the “TLR9-500 nM: averaged NF-κB-Luciferase relative to ODN2006” value was 32.00%.
Same read-out and setting: the figure for “mA*mG*mA*mA*mA*G*A*A*G*C*A*A*A*G*A*mU*mU*mC*mA*mA (AGAAAGAAGCAAAGAUUCAA; sugars from the 5' end m5 d10 m5, all phosphorothioate, methylation of C not given here) [[CDKN2B-AS1]1519]” is 68.12%.
“mA*mG*mA*mU*mU*A*T*C*T*T*C*T*T*T*T*mA*mA*mU*mU*mU (AGAUUATCTTCTTTTAAUUU; sugars from the 5' end m5 d10 m5, all phosphorothioate, methylation of C not given here) [[CDKN2B-AS1]2130]”: the “TLR9-500 nM: averaged NF-κB-Luciferase relative to ODN2006” value is recorded as 78.72%.
As for “mA*mG*mC*mC*mG*A*A*C*A*G*A*A*G*G*A*mG*mC*mG*mU*mC (AGCCGAACAGAAGGAGCGUC; sugars from the 5' end m5 d10 m5, all phosphorothioate, methylation of C not given here) [[LINC-PINT]587 KL]”, the “TLR9-500 nM: averaged NF-κB-Luciferase relative to ODN2006” value is reported as 57.46%.
The same measure, in the same setting: the figure for “mA*mG*mG*mA*mU*T*A*A*A*A*C*A*G*A*T*mU*mA*mA*mU*mA (mA*mG*mG*mA*mU*dT*dA*dA*dA*dA*dC*dA*dG*dA*dT*mU*mA*mA*mU*mA) [[CDKN2B-AS1] 1775]” is 63.48%; for “mA*mG*mG*mC*mC*T*C*C*A*G*T*G*T*C*T*mU*mC*mU*mC*mC (mA*mG*mG*mC*mC*dT*dC*dC*dA*dG*dT*dG*dT*dC*dT*mU*mC*mU*mC*mC; antisense) [[CDKN2B-AS1]2218]” it is 81.24%; for “mA*mU*mA*mU*mC*T*G*C*T*G*C*C*C*A*C*mC*mU*mU*mC*mU (AUAUCTGCTGCCCACCUUCU; antisense; sugars from the 5' end m5 d10 m5, all phosphorothioate, methylation of C not given here) [[CDKN2B-AS1]831]” it is 73.46%.
On the same count and under the same terms, the result for “mA*mU*mG*mA*mC*A*T*T*T*C*G*T*G*G*C*mU*mC*mC*mU*mA (mA*mU*mG*mA*mC*dA*dT*dT*dT*dC*dG*dT*dG*dG*dC*mU*mC*mC*mU*mA) [[LINC-PINT]524.1]” reads 107.12%.
On the same count and under the same terms, the result for “mC*mA*mA*mG*mC*C*C*C*A*G*C*G*T*T*C*mC*mU*mC*mC*mG (mC*mA*mA*mG*mC*dC*dC*dC*dA*dG*dC*dG*dT*dT*dC*mC*mU*mC*mC*mG; antisense) [[LINC-PINT]83.1]” reads 93.79%.
On to “mC*mA*mC*mC*mC*T*T*C*T*C*T*C*T*G*G*mU*mC*mC*mC*mA (CACCCTTCTCTCTGGUCCCA; antisense; sugars from the 5' end m5 d10 m5, all phosphorothioate, methylation of C not given here) [[LINC-PINT]116]”, for which the “TLR9-500 nM: averaged NF-κB-Luciferase relative to ODN2006” value is given as 102.85%.
